# Experimental data published in the NIST ThermoML archive (doi:10.1021/je301353z).
# Numbers after ± are expanded uncertainties.
# Experiment: xn = mol fraction of the nth substance listed
# Settings: 101 kPa, Liquid; for speed of sound: Sing-around technique in a fixed-path interferometer; for mass density: Vibrating tube method
structure (smiles),measurement,setting,value
O=C1CCCN1 [2-pyrrolidinone] + c1ccncc1,speed of sound,"293.15 K, x1 = 0.1333",1468.5 ± 1.2 m/s
same,speed of sound,"293.15 K, x1 = 0.1801",1478.1 ± 1.2 m/s
same,speed of sound,"293.15 K, x1 = 0.2312",1488.6 ± 1.2 m/s
same,speed of sound,"293.15 K, x1 = 0.2713",1496.9 ± 1.2 m/s
same,speed of sound,"293.15 K, x1 = 0.3312",1509.4 ± 1.2 m/s
same,speed of sound,"293.15 K, x1 = 0.3717",1518 ± 1.2 m/s
same,speed of sound,"293.15 K, x1 = 0.4312",1530.8 ± 1.2 m/s
same,speed of sound,"293.15 K, x1 = 0.4752",1540.2 ± 1.2 m/s
same,speed of sound,"293.15 K, x1 = 0.5316",1552.3 ± 1.3 m/s
same,speed of sound,"293.15 K, x1 = 0.5717",1560.9 ± 1.3 m/s
same,speed of sound,"293.15 K, x1 = 0.6219",1571.9 ± 1.3 m/s
same,speed of sound,"293.15 K, x1 = 0.6772",1583.7 ± 1.3 m/s
same,speed of sound,"293.15 K, x1 = 0.7314",1595.4 ± 1.3 m/s
same,speed of sound,"293.15 K, x1 = 0.7714",1603.9 ± 1.3 m/s
same,speed of sound,"293.15 K, x1 = 0.8312",1616.4 ± 1.3 m/s
same,speed of sound,"293.15 K, x1 = 0.8712",1624.7 ± 1.3 m/s
same,speed of sound,"293.15 K, x1 = 0.9013",1630.8 ± 1.3 m/s
same,speed of sound,"293.15 K, x1 = 0.9311",1636.8 ± 1.3 m/s
same,mass density,"293.15 K, x1 = 0.1333",1001.83 ± 1 kg/m3
same,mass density,"293.15 K, x1 = 0.1801",1008.31 ± 1 kg/m3
same,mass density,"293.15 K, x1 = 0.2312",1015.32 ± 1 kg/m3
same,mass density,"293.15 K, x1 = 0.2713",1020.76 ± 1 kg/m3
same,mass density,"293.15 K, x1 = 0.3312",1028.79 ± 1 kg/m3
same,mass density,"293.15 K, x1 = 0.3717",1034.17 ± 1 kg/m3
same,mass density,"293.15 K, x1 = 0.4312",1041.94 ± 1 kg/m3
same,mass density,"293.15 K, x1 = 0.4752",1047.59 ± 1 kg/m3
same,mass density,"293.15 K, x1 = 0.5316",1054.74 ± 1 kg/m3
same,mass density,"293.15 K, x1 = 0.5717",1059.77 ± 1 kg/m3
same,mass density,"293.15 K, x1 = 0.6219",1065.97 ± 1 kg/m3
same,mass density,"293.15 K, x1 = 0.6772",1072.71 ± 1 kg/m3
same,mass density,"293.15 K, x1 = 0.7314",1079.26 ± 1 kg/m3
same,mass density,"293.15 K, x1 = 0.7714",1084.05 ± 1 kg/m3
same,mass density,"293.15 K, x1 = 0.8312",1091.16 ± 1 kg/m3
same,mass density,"293.15 K, x1 = 0.8712",1095.91 ± 1 kg/m3
same,mass density,"293.15 K, x1 = 0.9013",1099.48 ± 1 kg/m3
same,mass density,"293.15 K, x1 = 0.9311",1103.03 ± 1 kg/m3
same,speed of sound,"298.15 K, x1 = 0.1333",1445.6 ± 1.2 m/s
same,speed of sound,"298.15 K, x1 = 0.1801",1455.5 ± 1.2 m/s
same,speed of sound,"298.15 K, x1 = 0.2312",1466.4 ± 1.2 m/s
same,speed of sound,"298.15 K, x1 = 0.2713",1475.1 ± 1.2 m/s
same,speed of sound,"298.15 K, x1 = 0.3312",1488.1 ± 1.2 m/s
same,speed of sound,"298.15 K, x1 = 0.3717",1496.8 ± 1.2 m/s
same,speed of sound,"298.15 K, x1 = 0.4312",1510 ± 1.2 m/s
same,speed of sound,"298.15 K, x1 = 0.4752",1519.7 ± 1.2 m/s
same,speed of sound,"298.15 K, x1 = 0.5316",1532.1 ± 1.2 m/s
same,speed of sound,"298.15 K, x1 = 0.5717",1541 ± 1.2 m/s
same,speed of sound,"298.15 K, x1 = 0.6219",1552.1 ± 1.3 m/s
same,speed of sound,"298.15 K, x1 = 0.6772",1564.5 ± 1.3 m/s
same,speed of sound,"298.15 K, x1 = 0.7314",1576.4 ± 1.3 m/s
same,speed of sound,"298.15 K, x1 = 0.7714",1585.1 ± 1.3 m/s
same,speed of sound,"298.15 K, x1 = 0.8312",1598.2 ± 1.3 m/s
same,speed of sound,"298.15 K, x1 = 0.8712",1606.7 ± 1.3 m/s
same,speed of sound,"298.15 K, x1 = 0.9013",1613.2 ± 1.3 m/s
same,speed of sound,"298.15 K, x1 = 0.9311",1619.6 ± 1.3 m/s
same,mass density,"298.15 K, x1 = 0.1333",997.07 ± 1 kg/m3
same,mass density,"298.15 K, x1 = 0.1801",1003.57 ± 1 kg/m3
same,mass density,"298.15 K, x1 = 0.2312",1010.62 ± 1 kg/m3
same,mass density,"298.15 K, x1 = 0.2713",1016.1 ± 1 kg/m3
same,mass density,"298.15 K, x1 = 0.3312",1024.17 ± 1 kg/m3
same,mass density,"298.15 K, x1 = 0.3717",1029.56 ± 1 kg/m3
same,mass density,"298.15 K, x1 = 0.4312",1037.41 ± 1 kg/m3
same,mass density,"298.15 K, x1 = 0.4752",1043.13 ± 1 kg/m3
same,mass density,"298.15 K, x1 = 0.5316",1050.35 ± 1 kg/m3
same,mass density,"298.15 K, x1 = 0.5717",1055.45 ± 1 kg/m3
same,mass density,"298.15 K, x1 = 0.6219",1061.74 ± 1 kg/m3
same,mass density,"298.15 K, x1 = 0.6772",1068.57 ± 1 kg/m3
same,mass density,"298.15 K, x1 = 0.7314",1075.19 ± 1 kg/m3
same,mass density,"298.15 K, x1 = 0.7714",1080.04 ± 1 kg/m3
same,mass density,"298.15 K, x1 = 0.8312",1087.2 ± 1 kg/m3
same,mass density,"298.15 K, x1 = 0.8712",1091.96 ± 1 kg/m3
same,mass density,"298.15 K, x1 = 0.9013",1095.53 ± 1 kg/m3
same,mass density,"298.15 K, x1 = 0.9311",1099.05 ± 1 kg/m3
